Key:
[1] = tested on: toxicity of mercury, silver and thallium; conditions: observed by other researchers; cited from earlier work
[2] = tested on: cadmium-induced testicular demage; conditions: Kar, Das and Mukerji 1960; cited from earlier work
[3] = tested on: toxic effects of Na3 Au(S2 O3)2.2H2 O; assay: Gold toxicity in mice given sodium selenite prior to (drinking water) or after (injection) the gold compound; assay type: in vivo; conditions: gold at or slightly exceeding reported LD50, vs gold-only control
Protocol: (§1) A number of experiments in which sodium selenite was given to mice both prior to and after treatment with a gold compound were conducted. In the first series of experiments in which the selenium compound was administered prior to the gold injection, mice were given sodium selenite in their drinking water over an extended period of time. Periodically, the mice were sacrificed and the kidney and liver were analyzed to monitor the accumulation of selenium. When observed selenium levels in the liver were on the order of 5 ppm, the remaining animals were given the gold compound at levels slightly exceeding the reported LD50 value.
In the second series of experiments, in which sodium selenite were injected after the gold injection, the mice were given dosages of gold compounds at the reported LD50 value and were then injected with sodium selenite. In both series of experiments, a control group which received the gold compound but no selenium compound was maintained. […] In all cases, the gold was administered as Na3 Au(S2 O3)2.2H2 O.

[4] = Accumulation of selenium in tissue of mice; assay type: in vivo; conditions: sodium selenite in drinking water over an extended period, level at which gold was given
Protocol: as §1
In these experiments, large groups of mice were fed other type selenium compounds, which were sodium selenate, selenium yeast and selenocystine. Periodically, one would be sacrificed and the selenium concentration of the kidney and liver would be determined. When above 5 to about 7 ppm selenium concentrations were obtained, the remaining mice were given injections of Na3 Au(S2 O3)2.2H2 O at the reported LD50 value. A control group that received no dietary selenium was maintained. This control group was given the gold salt at the same time as the selenium accumulated mice. The toxic effects of the gold was then compared in the two groups of mice.

Row | Compound | protection against the toxicity of mercury, silver and thallium [1] | protection against cadmium-induced testicular damage [2] | toxic effects compared with mice which received only the gold treatment [3] | observed selenium levels in the liver [4]
1 | [Se] [selenium] | Protection effects | prevents cadmium-induced testicular demage |  | 
2 | O=[Se](O)O [sodium selenite] |  |  | markedly reduced toxic effects | ~5 ppm

— patent publication US4680286A, “Use of selenium-containing compounds for negating the toxic effects of gold compounds used in the treatment of rheumatoid arthritis, and a novel selenium-containing gold compound and use thereof as an anti-rheumatoid arthritis medicine” (priority 1985, dated 1987)
